The compounds below were run against T1, hNav1.7 and the β1 subunit (Homo sapiens, UniProt Q15858) (assay: Tritiated compound competitive binding to membranes from cells heterologously expressing hNav1.7 and the β1 subunit (LBA)). Conditions: competition with 100 pM [3H]compound, 18 h, room temperature; IC50 by 4 parameter logistic model.
T1 construct: expressed in transfected cells
Procedure: Example 235 Tritiated Compound Binding to Membranes Isolated from Cells that Heterologously Express hNav1.7 and the β1 Subunit
Preparation of membranes containing recombinantly expressed sodium channels: Frozen recombinant cell pellets were thawed on ice and diluted to 4 times the cell pellet weight with ice cold 50 mM Tris HCl, pH 7.4 buffer. The cell suspensions were homogenized on ice using a motorized glass dounce homogeniser. Homogenates were further diluted 8.4 times with ice cold 50 mM Tris HCl, pH 7.4 buffer and then centrifuged at 200×g at 4° C. for 15 min. The supernatants were collected and centrifuged at 10000×g at 4° C. for 50 min. The pellets were then re-suspended in 100 mM NaCl, 20 mM Tris HCl, pH 7.4 buffer containing 1% v/v protease inhibitors (Calbiochem) and re-homogenized on ice. The homogenized membranes were then processed through a syringe equipped with a 26 gauge needle. Protein concentrations were determined by Bradford Assay and the membranes were stored at −80° C.
Radioligand Binding Studies:
Saturation experiments. A competitive NaV1.7 inhibitor having a methyl group was tritiated. Three tritiums were incorporated in place of methyl hydrogens to generate [^3H]compound. Binding of this radioligand was performed in 5 mL borosilicate glass test tubes at room temperature. Binding was initiated by adding membranes to increasing concentrations of [^3H]compound in 100 mM NaCl, 20 mM Tris HCl, pH 7.4 buffer containing 0.01% w/v bovine serum albumin (BSA) for 18 h. […] After 18 h, the reactants were filtered through GF/C glass fiber filters presoaked in 0.5% w/v polyethylene imine. […] [^3H]compound bound to filters was quantified by liquid scintillation counting.
Competitive Binding Experiments:
Binding reactions were performed in 96-well polypropylene plates at room temperature for 18 h. In 360 μL, membranes were incubated with 100 pM [^3H]compound and increasing concentrations of Test Compound. […] Reactions were transferred and filtered through 96-well glass fiber/C filter plates presoaked with 0.5% polyethylene imine. The filtered reactions were washed 5 times with 200 μL ice cold buffer containing 0.25% BSA. Bound radioactivity was determined by liquid scintillation counting.
Data Analysis: For saturation experiments, non-specific binding was subtracted from total binding to provide specific binding and these values were recalculated in terms of pmol ligand bound per mg protein. Saturation curves were constructed and dissociation constants were calculated using the single site ligand binding model: Beq=(Bmax*X)/(X+Kd), where Beq is the amount of ligand bound at equilibrium, Bmax is the maximum receptor density, Kd is the dissociation constant for the ligand, and X is the free ligand concentration. For competition studies percent inhibition was determined and IC50 values were calculated using a 4 parameter logistic model (% inhibition=(A+((B−A)/(1+((x/C)^D)))) using XLfit, where A and B are the maximal and minimum inhibition respectively, C is the IC50 concentration and D is the (Hill) slope.

T1 sequence (Q15858 whole entry): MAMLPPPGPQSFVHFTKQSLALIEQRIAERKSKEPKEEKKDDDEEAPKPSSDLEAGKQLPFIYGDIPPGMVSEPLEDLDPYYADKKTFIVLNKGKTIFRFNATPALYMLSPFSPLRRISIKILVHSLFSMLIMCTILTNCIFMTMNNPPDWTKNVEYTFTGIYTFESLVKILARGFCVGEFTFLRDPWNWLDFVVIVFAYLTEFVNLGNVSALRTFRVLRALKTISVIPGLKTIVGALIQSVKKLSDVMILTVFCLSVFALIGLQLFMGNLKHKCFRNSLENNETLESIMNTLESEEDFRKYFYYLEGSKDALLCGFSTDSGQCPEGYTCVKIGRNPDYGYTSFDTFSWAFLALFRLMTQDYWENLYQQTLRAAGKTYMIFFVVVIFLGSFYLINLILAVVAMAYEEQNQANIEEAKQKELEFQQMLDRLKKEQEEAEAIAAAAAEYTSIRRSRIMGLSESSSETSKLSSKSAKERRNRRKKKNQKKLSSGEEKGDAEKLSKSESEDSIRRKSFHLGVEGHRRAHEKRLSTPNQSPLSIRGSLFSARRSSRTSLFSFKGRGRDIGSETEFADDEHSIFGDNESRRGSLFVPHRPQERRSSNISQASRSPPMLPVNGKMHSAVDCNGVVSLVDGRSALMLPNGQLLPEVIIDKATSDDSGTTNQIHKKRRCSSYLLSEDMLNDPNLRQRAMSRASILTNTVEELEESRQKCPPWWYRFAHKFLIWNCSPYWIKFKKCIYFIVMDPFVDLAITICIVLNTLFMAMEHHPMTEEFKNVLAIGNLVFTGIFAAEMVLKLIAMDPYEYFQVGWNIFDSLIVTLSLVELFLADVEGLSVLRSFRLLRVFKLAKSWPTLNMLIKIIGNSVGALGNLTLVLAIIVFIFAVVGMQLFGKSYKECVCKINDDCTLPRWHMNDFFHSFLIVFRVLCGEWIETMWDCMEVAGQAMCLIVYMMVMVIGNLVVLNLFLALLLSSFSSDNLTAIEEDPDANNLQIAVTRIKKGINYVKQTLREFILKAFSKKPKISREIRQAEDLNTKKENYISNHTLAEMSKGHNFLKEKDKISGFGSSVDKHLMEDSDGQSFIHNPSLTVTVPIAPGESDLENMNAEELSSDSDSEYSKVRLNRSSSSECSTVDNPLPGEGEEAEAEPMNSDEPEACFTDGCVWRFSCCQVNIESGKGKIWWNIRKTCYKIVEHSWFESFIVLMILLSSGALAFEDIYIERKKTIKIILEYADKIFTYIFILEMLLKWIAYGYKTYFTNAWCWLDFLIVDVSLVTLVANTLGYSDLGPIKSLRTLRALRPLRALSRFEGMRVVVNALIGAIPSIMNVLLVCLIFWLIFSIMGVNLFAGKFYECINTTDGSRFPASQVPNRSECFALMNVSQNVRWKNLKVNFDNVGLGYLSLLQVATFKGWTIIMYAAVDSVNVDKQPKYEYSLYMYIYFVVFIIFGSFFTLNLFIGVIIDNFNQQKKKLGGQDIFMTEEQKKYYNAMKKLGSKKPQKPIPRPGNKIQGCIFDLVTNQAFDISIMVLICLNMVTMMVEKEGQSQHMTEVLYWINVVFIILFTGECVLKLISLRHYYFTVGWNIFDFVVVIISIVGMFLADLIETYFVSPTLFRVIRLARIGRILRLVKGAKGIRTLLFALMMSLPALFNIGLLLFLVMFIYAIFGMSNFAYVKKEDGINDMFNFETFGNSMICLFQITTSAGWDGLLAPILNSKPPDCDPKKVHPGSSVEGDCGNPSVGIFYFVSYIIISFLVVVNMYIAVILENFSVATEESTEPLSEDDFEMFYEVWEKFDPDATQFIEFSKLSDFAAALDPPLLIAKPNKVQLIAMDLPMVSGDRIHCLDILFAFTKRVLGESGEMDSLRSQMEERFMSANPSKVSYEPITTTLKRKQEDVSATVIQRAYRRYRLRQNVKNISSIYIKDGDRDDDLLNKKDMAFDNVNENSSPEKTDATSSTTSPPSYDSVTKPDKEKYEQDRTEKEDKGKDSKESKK
T1 sequence (Q07699 19-218 partner): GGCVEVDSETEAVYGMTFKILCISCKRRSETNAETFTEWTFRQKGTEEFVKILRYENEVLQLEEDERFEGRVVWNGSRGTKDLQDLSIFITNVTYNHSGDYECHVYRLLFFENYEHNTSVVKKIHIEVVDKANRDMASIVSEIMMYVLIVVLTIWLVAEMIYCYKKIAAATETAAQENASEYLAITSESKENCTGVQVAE

SMILES	Nav1.7 (LBA)
O=S(=O)(Nc1nccs1)c1cc2c(cc1F)[C@@H](N1CC[C@@H](C(F)(F)F)C[C@H]1c1ccc(F)c(F)c1)CCO2 [Example 198, (S)-4-((2S,4R)-2-(3,4-difluorophenyl)-4-(trifluoromethyl)piperidin-1-yl)-6-fluoro-N-(thiazol-2-yl)chroman-7-sulfonamide]	0.000649 µM
O=S(=O)(Nc1ncns1)c1cc2c(cc1F)[C@H](N1CCCC[C@H]1c1ccccc1)CCO2 (single isomer, unassigned) [Example 85]	0.218 µM
O=S(=O)(Nc1ncns1)c1ccc2c(c1)CC[C@@H]2N1CCCC[C@H]1c1ccccc1 (racemic) [Example 67, 1-(2-phenylpiperidin-1-yl)-N-(1,2,4-thiadiazol-5-yl)-2,3-dihydro-1H-indene-5-sulfonamide]	0.157 µM
O=S(=O)(Nc1ncccn1)c1cc2c(cc1F)[C@@H](N1CCCC[C@H]1c1ccccc1)CCO2 (single isomer, unassigned) [Example 94]	0.423 µM
N#CC1CC12CCN([C@H]1CCOc3cc(S(=O)(=O)Nc4ncns4)ccc31)CC2 (some centres unmarked) [Example 154]	4.52 µM
Cn1nccc1[C@H]1C[C@@H](C(F)(F)F)CCN1[C@@H]1CCOc2cc(S(=O)(=O)Nc3nccs3)c(F)cc21 [Example 160]	0.442 µM
Cn1nccc1[C@@H]1C[C@H](C(F)(F)F)CCN1[C@@H]1CCOc2cc(S(=O)(=O)Nc3ncns3)ccc21 (single isomer, unassigned) [Example 124]	0.601 µM
C[C@@H]1CC[C@H](c2ccccc2)N(Cc2cc(F)c(S(=O)(=O)Nc3ncns3)cc2F)C1 (single isomer, unassigned) [Example 20]	1.56 µM
O=S(=O)(Nc1ncns1)c1cc(F)c(CN2CC[C@H](OC(F)(F)F)C[C@@H]2c2ccccc2)cc1F (single isomer, unassigned) [Example 35]	0.0786 µM
C[C@@H]1CCCN(Cc2cc(F)c(S(=O)(=O)Nc3ncns3)cc2F)[C@@H]1c1ccccc1 (single isomer, unassigned) [Example 23]	0.366 µM
O=S(=O)(Nc1nccs1)c1cc2c(cc1F)[C@H](N1CC[C@@H](C(F)(F)F)C[C@H]1c1ccc(F)cc1)CCO2 (racemic) [Example 93]	0.00333 µM
Cn1cc([C@@H]2C[C@H](C(F)(F)F)CCN2[C@H]2CCOc3cc(S(=O)(=O)Nc4ncns4)ccc32)cn1 [Example 201, (S)-4-((2S,4R)-2-(1-methyl-1H-pyrazol-4-yl)-4-(trifluoromethyl)piperidin-1-yl)-N-(1,2,4-thiadiazol-5-yl)chroman-7-sulfonamide]	0.0037 µM

Second part, the compound after the results:

Nav1.7 (LBA)	SMILES
0.00168 µM	O=S(=O)(Nc1ncns1)c1cc2c(cc1F)C(N1CCC(C(F)(F)F)CC1c1ccc(F)cc1)CCO2 (racemic) [Example 88, 6-fluoro-4-(cis-2-(4-fluorophenyl)-4-(trifluoromethyl)piperidin-1-yl)-N-(1,2,4-thiadiazol-5-yl)chromane-7-sulfonamide]
2.29 µM	O=S(=O)(Nc1ncns1)c1ccc2c(c1)OCC[C@H]2N1CCC(F)(F)C[C@H]1c1ccccc1 (single isomer, unassigned) [Example 139]
3 µM	O=S(=O)(Nc1ncns1)c1ccc2c(c1)OCC[C@H]2N1CC[C@@](O)(C(F)(F)F)C[C@H]1c1ccc(F)cc1 [Example 167, (R)-4-((2S,4S)-2-(4-fluorophenyl)-4-hydroxy-4-(trifluoromethyl)piperidin-1-yl)-N-(1,2,4-thiadiazol-5-yl)chroman-7-sulfonamide]
0.0183 µM	CC(C)(C)OC(=O)N1CCN([C@H]2CCOc3cc(S(=O)(=O)Nc4ncns4)ccc32)[C@H](c2ccc(F)cc2)C1 [Example 217, tert-butyl (R)-4-((S)-7-(N-(1,2,4-thiadiazol-5-yl)sulfamoyl)chroman-4-yl)-3-(4-fluorophenyl)piperazine-1-carboxylate]
0.798 µM	O=S(=O)(Nc1ncns1)c1ccc2c(c1)OCC[C@H]2N1CCC[C@H]1c1ccccc1 (single isomer, unassigned) [Example 40]

Source: US10787446B2 (GENENTECH, INC., priority 2015, dated 2020)
